Literature values as cited in patent US20070286875A1 (Morton Grove Pharmaceuticals, Inc., priority 2006, published 2007).

Tests used:
[1] = 10 mg once daily with erythromycin, cimetidine, ketoconazole

CCOC(=O)N1CCC(=C2c3ccc(Cl)cc3CCc3cccnc32)CC1 [loratadine, ethyl 4-(8-chloro-5,6-dihydro-11H-benzo[5,6]cyclohepta[1,2-b]pyridin-11-ylidene)-1-piperidinecarboxylate]
changes in safety profile on co-administration [1]: no clinically relevant changes
binding to peripheral versus central nervous system H1-receptors (H1-receptors): preferential binding to peripheral
